The values that follow are results of earlier work, collected in patent publication US12084601B2, “Packaging patches having disinfecting sealing layer” (AMCOR FLEXIBLES NORTH AMERICA, INC., priority 2017, dated 2024).

SMILES strings stand for the structures.

With `[O][Cl+][O-]` [chlorine dioxide], the “Half-life of chlorine dioxide degradation (first order kinetics)” value (ambient room light and temperature, depending on initial ClO2 concentration) was 2 to 3 h. The “Time for chlorine dioxide concentration in the package to reach levels sufficiently low for safe opening” value (spontaneous degradation, prior packages) is 12 to 48 h.
